From patent publication US20240270821A1, “GIP/GLP1/GCG TRI-RECEPTOR AGONISTS AND USES THEREOF” (priority 2023, published 2024) come the findings set out here.

Common to all, as to type: cell-based
Assay [1] addresses T1, hGLP-1R (Homo sapiens, UniProt P43220). Put plainly: Functional cAMP activation in the presence of 0.1% casein (no HSA). Particulars: read-out: Relative cAMP EC50, hGLP-1R.
The target in assay [2] is T2, hGIPR (Homo sapiens, UniProt P48546).
T2 sequence (P48546 22-466): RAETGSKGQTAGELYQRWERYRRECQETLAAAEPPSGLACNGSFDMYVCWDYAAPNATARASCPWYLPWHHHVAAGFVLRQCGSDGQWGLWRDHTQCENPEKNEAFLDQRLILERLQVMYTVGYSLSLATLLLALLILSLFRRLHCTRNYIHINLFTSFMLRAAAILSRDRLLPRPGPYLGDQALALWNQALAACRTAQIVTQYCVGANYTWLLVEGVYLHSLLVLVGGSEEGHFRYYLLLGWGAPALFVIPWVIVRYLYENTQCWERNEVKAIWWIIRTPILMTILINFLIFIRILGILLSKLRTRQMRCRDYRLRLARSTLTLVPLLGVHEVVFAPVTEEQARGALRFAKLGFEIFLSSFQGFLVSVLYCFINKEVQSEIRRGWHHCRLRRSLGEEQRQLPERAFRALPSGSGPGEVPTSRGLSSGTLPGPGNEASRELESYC
Nature of the assay: Functional cAMP activity in the presence of 1% HSA. Particulars: read-out: cAMP Rel EC50, hGIPR.

For assay [3], the target named is T1, hGLP-1R. Nature of the assay: Functional cAMP activity in the presence of 1% HSA. The conditions noted are these: read-out: cAMP Rel EC50, hGLP-1R.
The target of another assay is human GcgR (Homo sapiens, UniProt P47871). Nature of the assay: Functional cAMP activity in the presence of 1% HSA. The conditions noted are these: read-out: cAMP Rel EC50, hGcgR.
Sequence of human GcgR (P47871 26-477): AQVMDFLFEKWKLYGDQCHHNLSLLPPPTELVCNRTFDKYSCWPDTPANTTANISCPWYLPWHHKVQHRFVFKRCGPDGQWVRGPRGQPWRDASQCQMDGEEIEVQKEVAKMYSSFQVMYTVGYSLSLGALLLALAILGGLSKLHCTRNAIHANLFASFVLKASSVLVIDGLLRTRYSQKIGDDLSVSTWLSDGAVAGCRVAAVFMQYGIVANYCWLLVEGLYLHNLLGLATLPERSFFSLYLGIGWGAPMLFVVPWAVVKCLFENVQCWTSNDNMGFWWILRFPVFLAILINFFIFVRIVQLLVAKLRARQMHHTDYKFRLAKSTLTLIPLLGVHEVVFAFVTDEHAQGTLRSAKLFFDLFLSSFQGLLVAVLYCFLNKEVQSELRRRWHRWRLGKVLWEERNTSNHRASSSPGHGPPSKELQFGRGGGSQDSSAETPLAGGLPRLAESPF
Assay [4] deals with T2, hGIPR. Nature of the assay: Functional cAMP activation in the presence of 0.1% casein (no HSA). Particulars: read-out: Relative cAMP EC50, hGIPR.
In another assay the target is hGcgR (Homo sapiens, UniProt P47871). The description is as above. Particulars: read-out: Relative cAMP EC50, hGcgR.
Sequence of hGcgR (P47871 26-477): as above
The mark [5] stands for this setting: in the presence of 0.1% casein (no HSA), geometric mean.

Where two headings read alike, the source gives them in different places. Starred links: 1 amine or outer side, 2 acyl side, 3 side chain; linkers in the order of their positions; H or OH if unused. Non-standard residues stand in square brackets, D forms with d. Groups on a side chain read outwards from the residue. No end group written: not given here. *: point of attachment. C18 diacid = O=C(O)CCCCCCCCCCCCCCCCC(=O)*; αMePhe(2-F) = C[C@](N)(Cc1ccccc1F)C(=O)O; γGlu = O=C(O)[C@H](CCC(=O)[*:2])N[*:1]; αMe4Pal = C[C@](N)(Cc1ccncc1)C(=O)O; αMeY = C[C@](N)(Cc1ccc(O)cc1)C(=O)O; 4Pal = N[C@@H](Cc1ccncc1)C(=O)O; αMeL = CC(C)C[C@](C)(N)C(=O)O; αMeS = C[C@](N)(CO)C(=O)O; Orn = NCCC[C@H](N)C(=O)O; AEEA = NCCOCCOCC(=O)O; Aib = CC(C)(N)C(=O)O
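For Relative cAMP EC50, hGIPR in this document: intracellular cAMP rise after 30 min at 37 °C read by HTRF against a standard curve, scaled between buffer alone (0%) and top control ligand concentration (100%), four-parameter fit.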
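For Relative cAMP EC50, hGLP-1R in this document: intracellular cAMP rise after 30 min at 37 °C read by HTRF, normalized between buffer only (0%) and maximal control ligand (100%), four-parameter variable-slope fit.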
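For Relative cAMP EC50, hGcgR in this document: intracellular cAMP rise after 30 min at 37 °C, read by HTRF against a cAMP standard curve, scaled from buffer only (0%) to maximal control ligand response (100%).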

T1 sequence (P43220 24-463): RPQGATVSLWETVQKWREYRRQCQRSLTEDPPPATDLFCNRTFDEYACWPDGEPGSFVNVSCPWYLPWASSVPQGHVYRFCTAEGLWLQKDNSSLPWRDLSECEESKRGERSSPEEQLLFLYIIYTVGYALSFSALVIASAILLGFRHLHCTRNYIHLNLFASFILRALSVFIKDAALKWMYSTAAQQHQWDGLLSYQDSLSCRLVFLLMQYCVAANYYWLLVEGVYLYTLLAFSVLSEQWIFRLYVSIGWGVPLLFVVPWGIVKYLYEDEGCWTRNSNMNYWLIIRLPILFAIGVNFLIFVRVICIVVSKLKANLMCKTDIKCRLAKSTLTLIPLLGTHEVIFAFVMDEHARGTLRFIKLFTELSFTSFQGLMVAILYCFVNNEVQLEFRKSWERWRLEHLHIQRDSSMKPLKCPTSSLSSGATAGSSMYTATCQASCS

With “Y[Aib]QGT[αMePhe(2-F)]TSD[4Pal][αMeS]ILLD[Orn]K([γGlu-γGlu-C18 diacid])AQ[Aib][Orn]FI[dE]YLIEGGPSSGEPPPEGEEE-NH2 [Example 606]”, the EC50 on hGLP-1R [1] is 0.786 nM; at hGIPR [2], 5.69 nM; at hGLP-1R [3], 53.1 nM; on human GcgR it was 474 nM; on hGIPR [4], 0.17 nM; on hGcgR it was 5.01 nM.
Regarding “H-Y[Aib]QGT[αMePhe(2-F)]TSD[4Pal][αMeS]I[αMeL]LD[Orn]K([γGlu-γGlu-C18 diacid])AQ[Aib][Orn]FI[dE][αMeY]LTEGGPSSGEPPPSGTE-NH2 [Example 542]”, the EC50 is 0.388 nM at hGLP-1R [1]; 1.69 nM at hGIPR [2]; 29.6 nM at hGLP-1R [3]; 256 nM at human GcgR; 0.0336 nM at hGIPR [4]; 5.03 nM on hGcgR.
Take “H-Y[Aib]QGTFTSD[4Pal][αMeS]Q[αMeL]LD[Orn]K([dE-γGlu-C18 diacid])AQ[αMe4Pal]QFIQ[αMeY]LLE[Aib]GPSSGAPPPSGGGE-NH2 [Example 1138]”: the EC50 at hGLP-1R [1] (setting [5]) was 1.93 nM; at hGIPR [2] it was 3.4 nM; at hGLP-1R [3] it was 164 nM; on human GcgR, 72.8 nM; at hGIPR [4] (setting [5]), 0.0491 nM; at hGcgR (setting [5]), 1.01 nM.
Turning to “H-Y[Aib]QGT[αMePhe(2-F)]TSD[4Pal]SILLDKK([γGlu-γGlu-C18 diacid])AQ[Aib]AFIEYLEEGGPSSGAPPPSGSGE-NH2 [Example 618]”, the EC50 amounted to 1.53 nM at hGLP-1R [1]; 4.63 nM on hGIPR [2]; 88.9 nM on hGLP-1R [3]; 691 nM at human GcgR; 0.0418 nM on hGIPR [4]; 5.57 nM at hGcgR.
For “H-Y[Aib]QGTFTSDFS[Orn][αMeL]LDKK([AEEA-AEEA-γGlu-C18 diacid])AQ[Aib]AFIEYLLE[dA]GPSSG[4Pal]PPPSGH-NH2 [Example 257]”, the EC50 was found to be 2.66 nM on hGLP-1R [1] (setting [5]); 21 nM on hGIPR [2]; 388 nM on hGLP-1R [3]; 1210 nM at human GcgR; 0.135 nM at hGIPR [4] (setting [5]); 7.36 nM on hGcgR (setting [5]).
Turning to `CC[C@H](C)[C@H](NC(=O)[C@H](Cc1ccccc1)NC(=O)[C@H](CCCN)NC(=O)C(C)(C)NC(=O)[C@H](CCC(N)=O)NC(=O)[C@H](C)NC(=O)[C@H](CCCCNC(=O)CC[C@H](NC(=O)CC[C@H](NC(=O)CCCCCCCCCCCCCCCCC(=O)O)C(=O)O)C(=O)O)NC(=O)[C@H](CCCN)NC(=O)[C@H](CC(=O)O)NC(=O)[C@H](CC(C)C)NC(=O)[C@](C)(CC(C)C)NC(=O)[C@@H](NC(=O)[C@H](CO)NC(=O)[C@H](Cc1ccncc1)NC(=O)[C@H](CC(=O)O)NC(=O)[C@H](CO)NC(=O)[C@@H](NC(=O)[C@](C)(Cc1ccccc1F)NC(=O)[C@@H](NC(=O)CNC(=O)[C@H](CCC(N)=O)NC(=O)C(C)(C)NC(=O)[C@@H](N)Cc1ccc(O)cc1)[C@@H](C)O)[C@@H](C)O)[C@@H](C)CC)C(=O)N[C@H](CCC(=O)O)C(=O)N[C@@](C)(Cc1ccc(O)cc1)C(=O)N[C@@H](CC(C)C)C(=O)N[C@@H](CC(C)C)C(=O)N[C@@H](CCC(=O)O)C(=O)NCC(=O)NCC(=O)N1CCC[C@H]1C(=O)N[C@@H](CO)C(=O)N[C@@H](CO)C(=O)NCC(=O)N[C@@H](CCC(=O)O)C(=O)N1CCC[C@H]1C(=O)N1CCC[C@H]1C(=O)N1CCC[C@H]1C(=O)N[C@@H](CO)C(N)=O` [Example 371], the EC50 at hGLP-1R [1] (setting [5]) came to 0.327 nM; at hGIPR [2] it was 1.47 nM; at hGLP-1R [3], 47.4 nM; at human GcgR, 463 nM; at hGIPR [4] (setting [5]) it was 0.0128 nM; at hGcgR (setting [5]) it was 4.46 nM.
With “H-Y[Aib]QGT[αMePhe(2-F)]TSD[4Pal][αMeS]I[αMeL]LD[Orn]K([Glu-γGlu-C18 diacid])AQ[Aib][Orn]FI[dE][αMeY]LSEGGPSSGEPPPSGTE-NH2 [Example 563]”, the EC50 was 1.01 nM at hGLP-1R [1]; 11.8 nM on hGIPR [2]; 98.7 nM on hGLP-1R [3]; 1010 nM at human GcgR; 0.132 nM on hGIPR [4]; 8.3 nM on hGcgR.
